Molecular target: Stimulator of interferon genes protein (Homo sapiens, UniProt Q86WV6)
Assay: WT STING Binding Assay
Method: Upon proximity of the two dyes, the excitation of the donor by the flash lamp on the PHERAstar FSX plate reader triggers a Fluorescence Resonance Energy Transfer (FRET) towards the acceptor, which in turn fluoresces at 665 nm. To assess the ability of the synthetic small molecule STING ligands to bind to human STING, a competitive assay format was applied. A 10-point titration of each of the synthetic ligands in 5 uL were transferred into a 384 well plate, followed by 20 uL of assay buffer containing the 6×His-tagged human STING protein and labeled 2′3′cGAMP ligand and incubated for three hours at room temperature. The raw values obtained from the PHERAstar were used to calculate the reported IC50 values (the signal is inversely proportional to the binding of the synthetic ligand) through curve fitting in Genedata. The percent inhibition was calculated based upon the maximal amount of binding by synthetic compound versus the maximum binding of unlabeled 2′3′ cGAMP which was used as a control in each assay.

Chain of Stimulator of interferon genes protein (Q86WV6 whole entry): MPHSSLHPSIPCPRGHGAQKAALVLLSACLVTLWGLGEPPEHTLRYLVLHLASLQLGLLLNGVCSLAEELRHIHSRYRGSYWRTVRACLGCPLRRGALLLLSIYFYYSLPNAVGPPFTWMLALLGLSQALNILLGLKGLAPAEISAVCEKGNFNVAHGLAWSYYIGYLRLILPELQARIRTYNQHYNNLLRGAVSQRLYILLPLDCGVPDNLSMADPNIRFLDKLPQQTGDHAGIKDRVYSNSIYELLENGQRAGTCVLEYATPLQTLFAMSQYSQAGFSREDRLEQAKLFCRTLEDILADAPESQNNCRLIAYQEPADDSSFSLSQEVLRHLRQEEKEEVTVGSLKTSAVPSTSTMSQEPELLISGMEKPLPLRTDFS

| IC50 [nM] | SMILES |
| --- | --- |
| > 1000 | O=C(Nc1cc(OCc2cc(C(=O)O)c(NC(=O)c3ccc(-n4ccnc4)nn3)cc2F)c(F)cc1C(=O)O)c1ccc(-n2ccnc2)nn1 [US20230357253, Compound 190] |
| < 10 | O=C(Nc1cc(OCCOc2cc(C(=O)O)c(NC(=O)c3ccc(-n4ccnc4)nn3)cc2F)c(F)cc1C(=O)O)c1ccc(-n2ccnc2)nn1 [US20230357253, Compound 191] |
| < 10 | CC(Cc1cc(NC(=O)c2ccc(-n3ccnc3)nn2)c(C(=O)O)cc1F)Cc1cc(NC(=O)c2ccc(-n3ccnc3)nn2)c(C(=O)O)cc1F [US20230357253, Compound 194] |
| < 10 | O=C(Nc1cc(CCSc2cc(NC(=O)c3ccc(-n4ccnc4)nn3)c(C(=O)O)cc2F)c(F)cc1C(=O)O)c1ccc(-n2ccnc2)nn1 [US20230357253, Compound 195] |
| < 10 | C=C(Cc1cc(NC(=O)c2ccc(-n3ccnc3)nn2)c(C(=O)O)cc1F)Cc1cc(NC(=O)c2ccc(-n3ccnc3)nn2)c(C(=O)O)cc1F [US20230357253, Compound 199] |
| > 1000 | O=C(Nc1cc(CC[S+]([O-])c2cc(NC(=O)c3ccc(-n4ccnc4)nn3)c(C(=O)O)cc2F)c(F)cc1C(=O)O)c1ccc(-n2ccnc2)nn1 (stereo not given) [US20230357253, Compound 200] |
| < 10 | O=C(Nc1cc(OCCc2cc(C(=O)O)c(NC(=O)c3ccc(-c4cn[nH]c4)nn3)cc2F)c(F)cc1C(=O)O)c1ccc(-c2cn[nH]c2)nn1 [US20230357253, Compound 204] |
| < 10 | O=C(Nc1cc(CCOc2cc(NC(=O)c3ccc(-n4ccnc4)nn3)c(C(=O)O)cc2F)c(F)cc1C(=O)O)c1ccc(-c2cn[nH]c2)nn1 [US20230357253, Compound 205] |
| > 1000 | Cn1nccc1-c1ccc(C(=O)Nc2cc(OCCCOc3cc(NC(=O)c4ccc(-c5ccnn5C)nn4)c(C(=O)O)cc3F)c(F)cc2C(=O)O)nn1 [US20230357253, Compound 206] |
| > 1000 | Cn1nccc1-c1ccc(C(=O)Nc2cc(CCCc3cc(NC(=O)c4ccc(-n5ccnc5)nn4)c(C(=O)O)cc3F)c(F)cc2C(=O)O)nn1 [US20230357253, Compound 207] |
| > 1000 | O=C(Nc1cc(CCCc2cc(NC(=O)c3ccc(-n4ccnc4)nn3)c(C(=O)O)cc2F)c(F)cc1C(=O)O)c1ccc(N2CCOCC2)nn1 [US20230357253, Compound 212] |
| > 1000 | O=C(Nc1cc(CCCc2cc(NC(=O)c3ccc(-n4ccnc4)nn3)c(C(=O)O)cc2F)c(F)cc1C(=O)O)c1ccc(N2CCNCC2)nn1 [US20230357253, Compound 214] |

The remaining lines, values behind:

| SMILES | IC50 [nM] |
| --- | --- |
| O=C(Nc1cc(CCCc2cc(NC(=O)c3ccc(-n4ccnc4)nn3)c(C(=O)O)s2)c(F)cc1C(=O)O)c1ccc(-n2ccnc2)nn1 [US20230357253, Compound 164] | < 10 |
| O=C(Nc1cc(OCCc2cc(C(=O)O)c(NC(=O)c3ccc(-n4ccnc4)nn3)cc2Cl)c(F)cc1C(=O)O)c1ccc(-n2ccnc2)nn1 [US20230357253, Compound 166] | < 10 |
| O=C(Nc1cc(OCCCOc2cc(NC(=O)c3ccc(-n4ccnc4)nn3)c(C(=O)O)cc2F)c(F)cc1C(=O)O)c1ccc(-n2ccnc2)nn1 [US20230357253, Compound 168] | < 10 |
| O=C(Nc1cc(OCCc2cc(C(=O)O)c(NC(=O)c3ccc4nnnn4n3)cc2F)c(F)cc1C(=O)O)c1ccc(-n2ccnc2)nn1 [US20230357253, Compound 169] | < 10 |
| O=C(Nc1cc(CCCc2cc(NC(=O)c3ccc(-n4ccnc4)nn3)c(C(=O)O)cc2Cl)c(F)cc1C(=O)O)c1ccc(-n2ccnc2)nn1 [US20230357253, Compound 174] | < 10 |
| O=C(Nc1cc(OCCc2c(F)cc(NC(=O)c3ccc(-n4ccnc4)nn3)c(C(=O)O)c2F)c(F)cc1C(=O)O)c1ccc(-n2ccnc2)nn1 [US20230357253, Compound 177] | < 10 |
| O=C(Nc1cc(CCc2cc(C(=O)O)c(NC(=O)c3ccc(-n4ccnc4)nn3)cc2F)c(F)cc1C(=O)O)c1ccc(-n2ccnc2)nn1 [US20230357253, Compound 180] | > 1000 |
| N#Cc1cc(C(=O)O)c(NC(=O)c2ccc(-n3ccnc3)nn2)cc1CCCc1cc(NC(=O)c2ccc(-n3ccnc3)nn2)c(C(=O)O)cc1F [US20230357253, Compound 182] | < 10 |
